The values that follow are results of earlier work, collected in patent publication US20230210786A1, “METHOD FOR SO[…], […] […] CANNABINOIDS” (ATHENION AG, priority 2020, published 2023).

For this data set the following is noted: in vivo.

On to `CCCCCc1cc(O)c2c(c1)OC(C)(C)[C@@H]1CCC(C)=C[C@@H]21` [THC, (-)-trans-Δ^9-tetrahydrocannabinol], for which the “apparent volume of distribution” value is 10 L/kg and the plasma protein binding entry was “ca. 97%”.
